Assay type in all cases: in vivo
In test [1] the test system is Amaranthus tamariscinus (Common waterhemp, AMATA), PPO resistant biotype 3 that was shown to contain the ΔG210 mutation (w.4). Briefly: Greenhouse herbicidal activity test, PPO resistant waterhemp w.4. Particulars: use rate 4 g/ha; PPO resistant biotype 3 with ΔG210 mutation; scale 0 to 100. The text has this: (§1) The culture containers used were plastic flowerpots containing loamy sand with approximately 3.0% of humus as the substrate. The seeds of the test plants were sown separately for each species and/or resistant biotype. For the pre-emergence treatment, the active ingredients, which had been suspended or emulsified in water, were applied directly after sowing by means of finely distributing nozzles. The containers were irrigated gently to promote germination and growth and subsequently covered with transparent plastic hoods until the plants had rooted. This cover caused uniform germination of the test plants, unless this had been impaired by the active ingredients. For the post-emergence treatment, the test plants were first grown to a height of 3 to 15 cm, depending on the plant habit, and only then treated with the active ingredients which had been suspended or emulsified in water. For this purpose, the test plants were either sown directly and grown in the same containers, or they were first grown separately as seedlings and transplanted into the test containers a few days prior to treatment. Depending on the species, the plants were kept at 10-25° C. or 20-35° C., respectively. The test period extended over 2 to 4 weeks. During this time, the plants were tended, and their response to the individual treatments was evaluated. The evaluation was carried out by using a scale from 0 to 100. […]

Test [2] has as its system Amaranthus tamariscinus (Common waterhemp, AMATA), PPO resistant biotype 1 (w.2). Briefly: Greenhouse herbicidal activity test, PPO resistant waterhemp w.2. Particulars: use rate 4 g/ha, scale 0 to 100.
From the text: as §1

Test [3] deals with Amaranthus tamariscinus (Common waterhemp, AMATA), Sensitive biotype (w.1). In words: Greenhouse herbicidal activity test, sensitive waterhemp w.1. Conditions: use rate 4 g/ha, scale 0 to 100 (100 = complete destruction, 0 = no damage).
From the text: as §1

In test [4] the test system is Amaranthus tamariscinus (Common waterhemp, AMATA), PPO resistant biotype 2 (w.3). Briefly: Greenhouse herbicidal activity test, PPO resistant waterhemp w.3. Conditions: use rate 4 g/ha, scale 0 to 100.
From the text: as §1

The record followed here is patent US20190166841A1, “Method for Controlling PPO Resistant Weeds” (BASF SE, priority 2016, published 2019).

`CCS(=O)(=O)Nc1cc(-n2nc(C(F)(F)F)n(C)c2=O)c(F)cc1C(N)=S` [(I).1, bencarbazone]: the “Weed control (%) w.4” value in test [1] is 82%. The “Weed control (%) w.2” value in test [2] is 100%. Besides, the “Weed control (%) w.1” value in test [3] was determined as 92%. Besides, in test [4], the “Weed control (%) w.3” value was found to be 100%.
